Key:
[1] = Inhibition of melanin formation in Melan-a cells after 5 days; format: functional, cell-based; settings: 120 h
[2] = Cytotoxicity againt Melan-a cells by MTT assay; format: cell-based; settings: Mus musculus
[3] = DPPH radical scavenging activity after 30 mins; format: functional
[4] = biological target: Tyrosinase (Mus musculus) (UniProt P11344); assay: Inhibition of tyrosinase in Melan-a cells
Chain of Tyrosinase (Mus musculus) (P11344 whole entry, looked up): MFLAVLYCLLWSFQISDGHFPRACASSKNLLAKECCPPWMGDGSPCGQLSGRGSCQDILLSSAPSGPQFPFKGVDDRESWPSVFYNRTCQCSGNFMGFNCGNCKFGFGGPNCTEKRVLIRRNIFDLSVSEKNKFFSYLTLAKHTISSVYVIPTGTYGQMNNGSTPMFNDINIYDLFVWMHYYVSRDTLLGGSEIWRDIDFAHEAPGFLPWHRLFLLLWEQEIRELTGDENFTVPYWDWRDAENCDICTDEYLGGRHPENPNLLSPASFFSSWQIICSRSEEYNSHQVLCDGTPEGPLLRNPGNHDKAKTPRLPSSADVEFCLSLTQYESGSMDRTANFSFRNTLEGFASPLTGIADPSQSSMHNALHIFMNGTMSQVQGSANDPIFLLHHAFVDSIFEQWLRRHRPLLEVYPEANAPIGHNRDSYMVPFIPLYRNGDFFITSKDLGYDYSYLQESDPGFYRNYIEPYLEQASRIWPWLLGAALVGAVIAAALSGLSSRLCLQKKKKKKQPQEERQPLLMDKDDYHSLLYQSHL

O=C(OCCc1cccc(O)c1)c1cc(O)c(O)c(O)c1
IC50 [1]: 8.94 µM
IC50 [2]: > 50 µM
IC50 [3]: 7.78 µM
IC50 [4]: 15.2 µM

O=C(OCCc1ccc(O)cc1)c1cc(O)c(O)c(O)c1
IC50 [2]: > 10 µM
IC50 [3]: 7.52 µM
IC50 [4]: 4.93 µM

O=C1O[C@H]([C@@H](O)CO)C(O)=C1O [ASCORBIC ACID]
IC50 [3]: 13.6 µM

Cc1c(C)c2c(c(C)c1O)CC[C@@](C)(CCCC(C)CCCC(C)CCCC(C)C)O2 (single isomer, unassigned) [ALPHA-TOCOPHEROL]
IC50 [3]: 9.89 µM

O=C(OCCc1ccccc1O)c1cc(O)c(O)c(O)c1
IC50 [1]: 13.7 µM
IC50 [2]: > 50 µM
IC50 [3]: 8.31 µM
IC50 [4]: 14.5 µM

OC[C@H]1O[C@@H](Oc2ccc(O)cc2)[C@H](O)[C@@H](O)[C@@H]1O [ARBUTIN]
IC50 [1]: 118 µM
IC50 [2]: > 1500 µM

From ChEMBL document CHEMBL1139787, “Synthetic tyrosyl gallate derivatives as potent melanin formation inhibitors” (Bioorg Med Chem Lett, 2007)
